Source: patent US10077237B2 (Sanofi, priority 2013, dated 2018)
pEC50: −log10 of the molar value. Several values for one entry are separate records, joined by “and”; a condition that tells them apart may be missing. Identical values can stand only once.

Target: T1, recombinant human AMPK complex, containing α2β1γ2 (Homo sapiens, UniProt P54646+Q9Y478)
T1 construct: hsAMPKα2-552-His, hsAMPKβ1-2-270 and hsAMPKγ-2-569 respectively; hsAMPKβ1-2-270; hsAMPKγ-2-569; His (C); made in house; host or cells: Spodoptera frugiperda Sf21 (baculovirus)
Test: AMPK in vitro activation assay (HTRF)
Format: biochemical
Details: for pEC50: HTRF, recombinant human α2β1γ2 AMPK, 200 μM ATP, biotinylated ACC-CREBp peptide, repeat determinations on separate lines; for Emax: potentiation of AMPK activity as percent over the basal signal (without compound)
Procedure, shortened: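 Sf21-expressed, Ni-NTA partially purified α2β1γ2 complex preincubated 30 min at room temperature with compound (0.5% DMSO) in HEPES pH 7.0, MgCl2, DTT. Reaction was started with a solution holding 200 μM ATP and 2 or 0.08 μM biotinylated ACC-CREBp peptide, run 45 min at 37° C, then read by HTRF with anti-pS133-CREB; EC50 from percent over basal.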

T1 sequence (P54646 2-552): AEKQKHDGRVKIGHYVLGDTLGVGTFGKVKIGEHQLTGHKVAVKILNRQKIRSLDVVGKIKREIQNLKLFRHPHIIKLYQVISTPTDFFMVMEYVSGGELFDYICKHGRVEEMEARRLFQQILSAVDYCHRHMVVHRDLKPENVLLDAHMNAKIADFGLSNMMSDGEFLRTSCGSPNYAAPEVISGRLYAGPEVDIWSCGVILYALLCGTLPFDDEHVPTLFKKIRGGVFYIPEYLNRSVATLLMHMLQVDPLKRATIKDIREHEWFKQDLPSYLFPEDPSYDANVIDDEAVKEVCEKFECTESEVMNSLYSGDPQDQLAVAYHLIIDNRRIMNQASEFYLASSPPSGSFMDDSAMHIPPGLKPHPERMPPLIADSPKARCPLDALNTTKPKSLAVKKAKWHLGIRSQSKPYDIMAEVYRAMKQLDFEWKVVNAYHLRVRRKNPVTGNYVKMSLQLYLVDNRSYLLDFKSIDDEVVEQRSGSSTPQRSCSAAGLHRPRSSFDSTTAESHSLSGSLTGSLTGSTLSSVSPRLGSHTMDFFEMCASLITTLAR
T1 sequence (Q9Y478 2-270): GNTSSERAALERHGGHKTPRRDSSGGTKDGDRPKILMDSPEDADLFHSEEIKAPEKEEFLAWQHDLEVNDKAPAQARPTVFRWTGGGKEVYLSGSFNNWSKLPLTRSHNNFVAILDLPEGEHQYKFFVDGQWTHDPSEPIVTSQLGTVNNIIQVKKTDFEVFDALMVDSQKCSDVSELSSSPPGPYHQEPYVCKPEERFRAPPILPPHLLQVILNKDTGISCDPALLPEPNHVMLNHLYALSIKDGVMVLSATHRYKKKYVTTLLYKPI
T1 sequence (Q9UGJ0 2-569 partner limits assumed): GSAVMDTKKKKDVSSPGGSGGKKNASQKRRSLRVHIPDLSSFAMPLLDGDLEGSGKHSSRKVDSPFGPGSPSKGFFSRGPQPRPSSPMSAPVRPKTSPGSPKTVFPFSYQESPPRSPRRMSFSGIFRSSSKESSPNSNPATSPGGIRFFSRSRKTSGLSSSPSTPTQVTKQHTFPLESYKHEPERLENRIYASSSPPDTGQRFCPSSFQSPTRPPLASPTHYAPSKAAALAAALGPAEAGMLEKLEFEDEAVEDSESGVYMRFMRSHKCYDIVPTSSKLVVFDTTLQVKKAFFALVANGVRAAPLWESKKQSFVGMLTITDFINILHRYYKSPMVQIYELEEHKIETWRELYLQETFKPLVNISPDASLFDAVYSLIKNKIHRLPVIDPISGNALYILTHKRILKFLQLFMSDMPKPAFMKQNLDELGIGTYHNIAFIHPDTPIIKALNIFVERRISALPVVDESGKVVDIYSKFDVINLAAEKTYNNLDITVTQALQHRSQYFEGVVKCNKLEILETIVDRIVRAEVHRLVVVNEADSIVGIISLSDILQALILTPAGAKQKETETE

| Compound | pEC50 | Emax [%] |
| --- | --- | --- |
| COc1cc(C(O)=C2C(=O)Nc3cc(Cl)c(-c4ccc(OCCCO)cc4)cc32)on1 [Compound 129, 6-chloro-3-[hydroxy-(3-methoxyisoxazol-5-yl)methylene]-5-[4-(3-hydroxypropoxy)phenyl]indolin-2-one] | 7.70 and 8.00 | – |
| COCCCOc1ccc(-c2cc3c(cc2Cl)NC(=O)C3=C(O)c2cc(OC)no2)cc1 [Compound 131, 6-chloro-3-[hydroxy-(3-methoxyisoxazol-5-yl)methylene]-5-[4-(3-methoxypropoxy)phenyl]indolin-2-one] | 7.48 and 7.07 | – |
| COc1cc(C(O)=C2C(=O)Nc3cc(Cl)c(-c4ccc(C5(OC)CCC5)cc4)cc32)on1 [Compound 110, 6-chloro-3-[hydroxy-(3-methoxyisoxazol-5-yl)methylene]-5-[4-(1-methoxycyclobutyl)phenyl]indolin-2-one] | 8.22 | 131 |
| Cc1cc(C(O)=C2C(=O)Nc3cc(Cl)c(-c4ccc(N5CCCC5)cc4)cc32)on1 [Compound 24, 6-Chloro-3-[1-hydroxy-1-(3-methyl-isoxazol-5-yl)-methylidene]-5-(4-pyrrolidin-1-yl-phenyl)-1,3-dihydro-indol-2-one] | 6.96 | 143 |
| COc1cccc(-c2ccc(-c3cc4c(cc3Cl)NC(=O)C4=C(O)c3cc(C4CC4)no3)cc2)c1O [Compound 117, 6-chloro-3-[(3-cyclopropylisoxazol-5-yl)hydroxy-methylene]-5-[4-(2-hydroxy-3-methoxy-phenyl)phenyl]indolin-2-one] | 10.00 | 129 |
| O=C1Nc2cc(Cl)c(-c3ccc(C4(CO)CC4)cc3)cc2C1=C(O)c1cc(C2CC2)no1 [Compound 106, 6-chloro-3-[(3-cyclopropylisoxazol-5-yl)hydroxy-methylene]-5-[4-[1-(hydroxymethyl)cyclopropyl]phenyl]indolin-2-one] | 10.00 | 155 |
| COc1cc(C(O)=C2C(=O)Nc3cc(Cl)c(-c4ccc(C(CO)CO)cc4)cc32)on1 [Compound 121, 6-chloro-5-[4-[2-hydroxy-1-(hydroxymethyl)ethyl]phenyl]-3-[hydroxy-(3-methoxyisoxazol-5-yl)methylene]indolin-2-one] | 8.40 | 172 |
| O=C1Nc2cc(Cl)c(-c3ccc(N4CCOCC4)cc3)cc2C1=C(O)c1cc(O)no1 [Compound 102, 6-chloro-3-[hydroxy-(3-hydroxyisoxazol-5-yl)methylene]-5-(4-morpholinophenyl)indolin-2-one] | 8.70 | 122 |
| CCOc1cc(C(O)=C2C(=O)Nc3cc(Cl)c(-c4ccc(-c5cccc(OC)c5O)cc4)cc32)on1 [Compound 105, 6-chloro-3-[(3-ethoxyisoxazol-5-yl)hydroxy-methylene]-5-[4-(2-hydroxy-3-methoxy-phenyl)phenyl]indolin-2-one] | 9.52 | 74 |
| COc1cc(C(O)=C2C(=O)Nc3cc(Cl)c(-c4ccc(N(C)C5CC5)cc4)cc32)on1 [Compound 153, 6-chloro-5-[4-[cyclopropyl(methyl)amino]phenyl]-3-[hydroxy-(3-methoxyisoxazol-5-yl)methylene]indolin-2-one] | 8.15 | 234 |
